Entries after “also recorded” stand apart in the source; their conditions may differ.
Assays:
Format in all cases: physicochemical
[1] = Dynamic solubility in biorelevant media and buffers at 37 °C (HPLC, XRPD of solids); conditions: for solubility at 1 h / solubility at 4 h / solubility at 24 h / solubility at 2 h: thermodynamic from solid
Procedure: (§1) After 1 hour/2 hours/4 hours/24 hours, the saturated solutions were obtained by filtration. The actual concentrations of the samples in the saturated solutions were determined by high-performance liquid chromatography (HPLC) (the filtered solutions were diluted as needed), and the crystal forms of the solids before and after the experiment were characterized by XRPD to check whether phase changes occurred.

[2] = Equilibrium solubility in organic solvents at room temperature (HPLC, XRPD of solids); conditions: organic solvent or mixture, thermodynamic from solid, 24 hours of equilibrium
Procedure: as §1, with “24 hours of equilibrium,” for “1 hour/2 hours/4 hours/24 hours,”, “contents” for “actual concentrations”

[3] = Intrinsic dissolution of tableted crystal forms; conditions: hydrochloride
[4] = Mechanical stability: grinding in agate mortar, XRPD; conditions: 50 mg ground with an agate mortar for 5 minutes; hydrochloride
From the text: The samples before and after ground were detected by XRPD.

[5] = Hygroscopicity by dynamic vapor sorption (DVS)
From the text: (§2) In the examples of the present application, the instrument used for the X-ray powder diffraction test is the D2 Phaser produced by Bruker. The instrument used for the differential scanning calorimetry test is the differential scanning calorimeter DSC 250 produced by TA Instruments. The instrument used for the thermogravimetric analysis is the thermogravimetric analyzer TGA 55 produced by TA Instruments. The instrument used for the FT-IR test is the Fourier infrared spectrometer ID1-summit produced by Thermo. The instrument used for the dynamic vapor sorption test is the DVS Intrinsic produced by Surface Measurement Systems (SMS). The instrument used for the microscopy is the microscope NJF-120A produced by Suzhou Nanguang Electronic Technology Co., Ltd.

[6] = Fluidity: angle of repose, bulk and tap density, Hausner ratio; conditions: hydrochloride
Procedure: This experiment was performed by using a tap density tester according to the fixed-volume method. The specific operations are as follows: The weighed powder, with a volume of 50 mL, was loaded into a graduated cylinder, and the graduated cylinder was secured onto a support. The graduated cylinder was set to be vibrated at 55 ± 5 vibrations per minute for 6-8 minutes. The volume change of the powder was measured in a measuring cup. The ratio of the weight of the powder to the volume (50 mL) before tapping is the bulk density of the powder, and the ratio of the weight of the powder to the volume after tapping is the tapped density of the powder.
The Hausner ratio and the compression degree were converted in the following methods. Hausner ratio = tap density/bulk density [formula] Compression degree = (tapdensity−bulkdensity)/tap density [formula]
This experiment was performed by a pouring method, and the angles of repose of the drug substances of the two crystal forms were measured in combination with a residual cone method to analyze their fluidities. The specific operations are as follows: The powder was poured onto the center of a disk with a specific diameter, and when the material on the slope of the powder pile began to flow freely out along the periphery of the disk, the pouring of the powder was stopped. The height (h) of the cone was measured, and the angle of repose was calculated in combination with the diameter (2r) of the disk, that is, tanQ = h/r.

[7] = Adhesiveness: PE bag adhesive rate; conditions: flipped at 5 rpm, 10 minutes in each direction; hydrochloride
Procedure: The bags were sealed, flipped at a rotational speed of 5 rpm for 10 minutes, and continued to be flipped in a different flipping direction at a fixed rotational speed for 10 minutes. The materials were poured out of the bags, and the materials remaining in the bags were accurately weighed to calculate the adhesive rate.
The adhesive rate was calculated according to the following formula: Adhesive rate = (initialmaterialweight-remainingmaterialweight)/contact surface area. [formula]

[8] = Compressibility: tableting, hardness and tensile strength; conditions: die with a diameter of 6 mm
Procedure: In this experiment, a die with a diameter of 6 mm was used. The drug substance and the drug substance + excipient were tableted under the same pressure, respectively. After the elasticity of the prepared tablets was restored, the radial crushing force F, diameter D, and thickness L of the tablets were measured. The tensile strength of the tablets was calculated according to the following formula: Ts = 2F/IIDL.

[9] = Microscopic morphology and particle size; conditions: microscopy; hydrochloride
From the text: as §2

[10] = FaSSIF (pH of 8.0), 1 hour, hydrochloride
[11] = FaSSIF (pH of 8.0), 2 hours, hydrochloride
[12] = pH = 4.0 acetic acid-sodium acetate buffer, 2 hours, hydrochloride
[13] = pH = 6.8 phosphate buffer, 4 hours
[14] = pH = 6.8 phosphate buffer, 24 hours

Crystal form of the solid [1, 10]: A + Free alkali | Solubility [1, 10]: 22 µg/mL | Crystal form of the solid [1, 11]: A + Free alkali | Solubility [1, 11]: 24 µg/mL | Crystal form of the solid ([1]; FaSSIF (pH of 8.0), 4 hours): Free alkali | Solubility ([1]; FaSSIF (pH of 8.0), 4 hours, hydrochloride): 18 µg/mL | Crystal form of the solid ([1]; FaSSIF (pH of 8.0), 24 hours): Free alkali | Solubility ([1]; FaSSIF (pH of 8.0), 24 hours, hydrochloride): 16 µg/mL | Solubility ([1]; FeSSIF (pH of 5.0), 4 hours, hydrochloride): 340 µg/mL | Crystal form of the solid ([1]; FeSSIF (pH of 5.0), 24 hours): no crystal form change | Crystal form of the solid ([1]; SGF (pH of 1.0), 1 hour): A + F | Crystal form of the solid ([1]; SGF (pH of 1.0), 2 hours): A + F | Crystal form of the solid ([1]; SGF (pH of 1.0), 4 hours): A + F | Crystal form of the solid ([1]; SGF (pH of 1.0), 24 hours): A + F | Crystal form of the solid ([1]; Water, 1 hour, hydrochloride): A + F | Crystal form of the solid ([1]; Water, 2 hours, hydrochloride): A + F | Crystal form of the solid ([1]; Water, 4 hours, hydrochloride): A + F | Solubility ([1]; Water, 4 hours, hydrochloride): 990 µg/mL | Crystal form of the solid ([1]; Water, 24 hours, hydrochloride): A + F | solubility at 1 h ([1]; acetic acid-sodium acetate buffer, pH 4, aqueous buffer, pH = 4.0 acetic acid-sodium acetate buffer, 1 hour): 1690 µg/mL | solubility at 4 h ([1]; acetic acid-sodium acetate buffer, pH 4, aqueous buffer, pH = 4.0 acetic acid-sodium acetate buffer, 4 hours): 1360 µg/mL | solubility at 24 h ([1]; acetic acid-sodium acetate buffer, pH 4, aqueous buffer, pH = 4.0 acetic acid-sodium acetate buffer, 24 hours): 4110 µg/mL | solubility at 1 h ([1]; fed state simulated intestinal fluid (FeSSIF), pH 5, fessif, FeSSIF (pH of 5.0), 1 hour): 1930 µg/mL | solubility at 2 h ([1]; fed state simulated intestinal fluid (FeSSIF), pH 5, fessif, FeSSIF (pH of 5.0), 2 hours): 2110 µg/mL | solubility at 24 h ([1]; fed state simulated intestinal fluid (FeSSIF), pH 5, fessif, FeSSIF (pH of 5.0), 24 hours): 3720 µg/mL | solubility at 1 h ([1]; hydrochloric acid aqueous solution, pH 1, simulated gastric fluid, pH = 1.0 hydrochloric acid aqueous solution, 1 hour): 280 µg/mL | solubility at 2 h ([1]; hydrochloric acid aqueous solution, pH 1, simulated gastric fluid, pH = 1.0 hydrochloric acid aqueous solution, 2 hours): 280 µg/mL | solubility at 4 h ([1]; hydrochloric acid aqueous solution, pH 1, simulated gastric fluid, pH = 1.0 hydrochloric acid aqueous solution, 4 hours): 330 µg/mL | solubility at 24 h ([1]; hydrochloric acid aqueous solution, pH 1, simulated gastric fluid, pH = 1.0 hydrochloric acid aqueous solution, 24 hours): 400 µg/mL | Crystal form of the solid ([1]; pH = 1.0 hydrochloric acid aqueous solution, 1 hour): A + F | Crystal form of the solid ([1]; pH = 1.0 hydrochloric acid aqueous solution, 2 hours): A + F | Crystal form of the solid ([1]; pH = 1.0 hydrochloric acid aqueous solution, 4 hours): A + F | Crystal form of the solid ([1]; pH = 1.0 hydrochloric acid aqueous solution, 24 hours): A + F | Crystal form of the solid ([1]; pH = 4.0 acetic acid-sodium acetate buffer, 1 hour, hydrochloride): A + F | Crystal form of the solid [1, 12]: A + F | Solubility [1, 12]: 1130 µg/mL | Crystal form of the solid ([1]; pH = 4.0 acetic acid-sodium acetate buffer, 4 hours, hydrochloride): A + F | Crystal form of the solid ([1]; pH = 4.0 acetic acid-sodium acetate buffer, 24 hours, hydrochloride): A + F | Crystal form of the solid ([1]; pH = 6.8 phosphate buffer, 1 hour): Free alkali | Crystal form of the solid ([1]; pH = 6.8 phosphate buffer, 2 hours): Free alkali | Solubility ([1]; pH = 6.8 phosphate buffer, 2 hours, hydrochloride): Not detected | Crystal form of the solid [1, 13]: Free alkali | Solubility [1, 13]: Not detected | Crystal form of the solid [1, 14]: Free alkali | Solubility [1, 14]: Not detected | solubility at 1 h ([1]; phosphate buffer, pH 6.8, aqueous buffer, pH = 6.8 phosphate buffer, 1 hour): 0.16 µg/mL | solubility at 1 h ([1]; simulated gastric fluid (SGF), pH 1, simulated gastric fluid, SGF (pH of 1.0), 1 hour): 260 µg/mL | solubility at 2 h ([1]; simulated gastric fluid (SGF), pH 1, simulated gastric fluid, SGF (pH of 1.0), 2 hours): 250 µg/mL | solubility at 4 h ([1]; simulated gastric fluid (SGF), pH 1, simulated gastric fluid, SGF (pH of 1.0), 4 hours): 280 µg/mL | solubility at 24 h ([1]; simulated gastric fluid (SGF), pH 1, simulated gastric fluid, SGF (pH of 1.0), 24 hours): 460 µg/mL | solubility at 1 h ([1]; water, 1 hour): 2020 µg/mL | solubility at 2 h ([1]; water, 2 hours): 2570 µg/mL | solubility at 24 h ([1]; water, 24 hours): 3290 µg/mL | solubility at 24 h ([2]; acetone): 43 µg/mL | solubility at 24 h ([2]; ethanol): 9990 µg/mL | solubility at 24 h ([2]; ethyl acetate): 11 µg/mL | Dissolution amount ([3]; Medium Water, 5 min): 0.0005 mg/mL | Dissolution amount ([3]; Medium Water, 10 min): 0.0010 mg/mL | Dissolution amount ([3]; Medium Water, 30 min): 0.0011 mg/mL | Dissolution amount ([3]; Medium Water, 45 min): 0.0003 mg/mL | Dissolution amount ([3]; Medium Water, 60 min): 0.0010 mg/mL | Dissolution amount ([3]; Medium Water, 90 min): 0.0012 mg/mL | Dissolution amount ([3]; Medium pH = 4.0, flow rate 4 mL/minute, 5 min): 0.0346 mg/mL | Dissolution amount ([3]; Medium pH = 4.0, flow rate 4 mL/minute, 10 min): 0.0462 mg/mL | Dissolution amount ([3]; Medium pH = 4.0, flow rate 4 mL/minute, 30 min): 0.0481 mg/mL | Dissolution amount ([3]; Medium pH = 4.0, flow rate 4 mL/minute, 45 min): 0.0477 mg/mL | Dissolution amount ([3]; Medium pH = 4.0, flow rate 4 mL/minute, 60 min): 0.0487 mg/mL | Dissolution amount ([3]; Medium pH = 4.0, flow rate 4 mL/minute, 90 min): 0.0479 mg/mL | Crystal form after ground (XRPD) [4]: remains unchanged | Weight gain by water absorption (DVS) ([5]; 24.4 °C/90% RH): 0.06% | Weight gain by water absorption (DVS) ([5]; vapor sorption at 25 °C/90% RH): 0.26% | Compression degree ([6]; (tap density − bulk density)/tap density): 33.0% 33.0% | Bulk density ([6]; fixed-volume method, 50 mL): 0.34 g/mL | Tap density ([6]; fixed-volume method, after tapping): 0.50 g/mL | Angle of repose ([6]; pouring method with residual cone method): 56.25 ° | Hausner ratio ([6]; tap density/bulk density): 1.5 | PE bag adhesive rate [7]: 0.0007 g/cm^2 | Tensile strength Ts ([8]; Ts = 2F/IIDL, hydrochloride): 0.17 | Hardness ([8]; same pressure, hydrochloride): 5 N | Experimental phenomena ([8]; tableting): Severe punch sticking | Length/short diameter ratio [9]: 1-3 | Microscopic morphology [9]: flaky
Structure (SMILES): CCCc1nc(-c2ccc(-c3ccc(CCC(N)(CO)CO)cc3)cc2)co1.Cl [Crystal form A, 2-amino-2-{2-(4'-(2-propyloxazol-4-yl)-[1,1'-biphenyl]-4-yl)ethyl}-1,3-propanediol hydrochloride]
Hygroscopicity description ([5]; DVS, 90% RH, hydrochloride): no or almost no hygroscopicity; also recorded: slightly hygroscopic

— patent EP4635945A1, “CRYSTAL FORM OF PROXIMOD, PREPARATION METHOD THEREFOR, AND USE THEREOF” (Jiankuan (Suzhou) Biotechnology Co., Ltd, priority 2022, dated 2024)
